Article PMC11111408, “Concurrent inhibition of oncogenic and wild-type RAS-GTP for cancer therapy” (Nature, 2024)
pEC50: −log10 of the molar value. Read-outs that look alike come from different tables or passages of the source.

System: panel of 183 cancer cell lines
Experiment: Cell panel of 183 cancer cell lines, viability (CTG) at Crown Bioscience
Assay type: cell-based
Details: Homo sapiens; for pEC50: read-out: median EC50
From the text: The panel consisted of cell lines with any substitution at position 12 of KRAS, NRAS or HRAS (KRAS(G12X), NRAS(G12X), HRAS(G12X)); substitutions in KRAS, NRAS or HRAS at any position other than 12, 13 and 61 (KRAS(other/VUS), NRAS(other/VUS), HRAS(other/VUS)); other oncogenic mutations in the RAS pathway (ABL1, ALK, ARAF, BRAF, CBL, EGFR, ERBB2, ERBB3, ERBB4, ERRFI1, FGFR1, FGFR2, FGFR3, FGFR4, FLT3, HRAS, IGF1R, JAK2, KIT, MAP2K1, MAP2K2, MAPK1, MET, NF1, NRAS, NTRK1, NTRK2, NTRK3, PDGFRA, PTPN11, RAC1, RAF1, RASA1, RET, RIT1, ROS1 and SOS1); and no oncogenic mutations in the RAS pathway. […] Cells were incubated for 120 h, and cell viability was determined using the CellTiter-Glo Luminescent Cell Viability Assay (CTG) (Promega, G7572) according to the manufacturer’s instructions.

CCn1c(-c2cc(N3CCN(C4CC4)CC3)cnc2[C@H](C)OC)c2c3cc(ccc31)-c1csc(n1)C[C@H](NC(=O)[C@H]1[C@@H]3COC[C@@H]31)C(=O)N1CCC[C@H](N1)C(=O)OCC(C)(C)C2 [RMC-7977]
EC50 (OVCAR-5, read-out: RMC-7977 EC50 (M), OVCAR5, KRAS G12V, Ovary): 1.02e-09 M | EC50 (OVCAR-8, read-out: RMC-7977 EC50 (M), OVCAR8, KRAS P121H, Ovary): > 1e-06 M | EC50 (PANC-1, read-out: RMC-7977 EC50 (M), PANC1, KRAS G12D, Pancreas): 1.66e-09 M | EC50 (PANC-03-27, read-out: RMC-7977 EC50 (M), PANC0327, KRAS G12V, Pancreas): 3.39e-10 M | EC50 (PL45, read-out: RMC-7977 EC50 (M), PL45, KRAS G12D, Pancreas): 3.31e-08 M | EC50 (PSN1, read-out: RMC-7977 EC50 (M), PSN1, KRAS G12R, Pancreas): 3.24e-09 M | pEC50 (PTPN11^MUT cell lines): 8.10 | EC50 (Panc 05.04, read-out: RMC-7977 EC50 (M), PANC0504, KRAS G12D, Pancreas): 1.62e-09 M | EC50 (Panc1005, read-out: RMC-7977 EC50 (M), PANC1005, KRAS G12D, Pancreas): 2.34e-09 M | pEC50 (RAS pathway wild-type (WT) cell lines): 7.15 | EC50 (RL95-2, read-out: RMC-7977 EC50 (M), RL952, HRAS Q61H, Uterus): 4.57e-09 M | EC50 (RT112/84, read-out: RMC-7977 EC50 (M), RT11284, FGFR fusion, Bladder): 4.87e-09 M | EC50 (SCC-9, read-out: RMC-7977 EC50 (M), SCC9, HRAS L133R, HN/Tongue): 1.23e-08 M | EC50 (SHP77, read-out: RMC-7977 EC50 (M), SHP77, KRAS G12V, Lung): > 1e-06 M | EC50 (SK-BR-3, read-out: RMC-7977 EC50 (M), SKBR3, MET amp, Breast): > 1e-06 M | EC50 (SK-CO-1, read-out: RMC-7977 EC50 (M), SKCO1, KRAS G12V, Large intestine/Colorectum): 1.05e-09 M | EC50 (SK-LMS-1, read-out: RMC-7977 EC50 (M), SKLMS1, NF1 LOF, Vulva): 6.33e-09 M | EC50 (SK-LU-1, read-out: RMC-7977 EC50 (M), SKLU1, KRAS G12D, Lung): > 1e-06 M | EC50 (SK-MEL-2, read-out: RMC-7977 EC50 (M), SKMEL2, NRAS Q61R, Skin): 9.12e-09 M | EC50 (SK-N-AS, read-out: RMC-7977 EC50 (M), SKNAS, NRAS Q61K, Brain&Nerves): 1.91e-09 M | EC50 (SK-N-FI, read-out: RMC-7977 EC50 (M), SKNFI, RAS pathway WT, Brain&Nerves): 3.82e-08 M | EC50 (SK-N-SH, read-out: RMC-7977 EC50 (M), SKNSH, NRAS Q61K, Brain&Nerves): 2.4e-07 M | EC50 (SK-OV-3, read-out: RMC-7977 EC50 (M), SKOV3, RAS pathway WT, Ovary): 5.38e-08 M | EC50 (SNU1, read-out: RMC-7977 EC50 (M), SNU1, KRAS G12D, Stomach): 7.76e-09 M | EC50 (SNU668, read-out: RMC-7977 EC50 (M), SNU668, KRAS Q61K, Stomach): 4.57e-09 M | EC50 (SNU-5, read-out: RMC-7977 EC50 (M), SNU5, MET amp, Stomach): 3.86e-09 M | EC50 (SNU-387, read-out: RMC-7977 EC50 (M), SNU387, NRAS Q61K, Liver): 5.01e-09 M | EC50 (SNU-398, read-out: RMC-7977 EC50 (M), SNU398, RAS pathway WT, Liver): > 1e-06 M | EC50 (SNU-601, read-out: RMC-7977 EC50 (M), SNU601, KRAS G12D, Stomach): 3.09e-09 M | EC50 (SU-DHL-1, read-out: RMC-7977 EC50 (M), SUDHL1, ALK fusion, Blood/lymphoma): 7.61e-08 M | EC50 (SU.86.86, read-out: RMC-7977 EC50 (M), SU8686, KRAS G12D, Pancreas): 2.45e-09 M | EC50 (SUM-159-PT, read-out: RMC-7977 EC50 (M), SUM159PT, HRAS G12D, Breast): 2.45e-09 M | EC50 (SW48, read-out: RMC-7977 EC50 (M), SW48, HRAS G161R, Large intestine/Colorectum): > 1e-06 M | EC50 (SW480, read-out: RMC-7977 EC50 (M), SW480, KRAS G12V, Large intestine/Colorectum): 2.57e-09 M | EC50 (SW626, read-out: RMC-7977 EC50 (M), SW626, KRAS G12V, Ovary): 1.82e-09 M | EC50 (SW684, read-out: RMC-7977 EC50 (M), SW684, NF1 LOF, Soft tissue): 3.68e-08 M | EC50 (SW756, read-out: RMC-7977 EC50 (M), SW756, KRAS G12C, Ovary): 1.17e-08 M | EC50 (SW780, read-out: RMC-7977 EC50 (M), SW780, FGFR fusion, Bladder): 5e-09 M | EC50 (SW837, read-out: RMC-7977 EC50 (M), SW837, KRAS G12C, Large intestine/Colorectum): 1.7e-09 M | EC50 (SW900, read-out: RMC-7977 EC50 (M), SW900, KRAS G12V, Lung): 4.07e-09 M | EC50 (SW948, read-out: RMC-7977 EC50 (M), SW948, KRAS Q61L, Large intestine/Colorectum): 1.45e-08 M | EC50 (SW 1116, read-out: RMC-7977 EC50 (M), SW1116, KRAS G12A, Large intestine/Colorectum): 1.82e-08 M | EC50 (SW1271, read-out: RMC-7977 EC50 (M), SW1271, NRAS Q61R, Lung): 2.19e-09 M | EC50 (SW1463, read-out: RMC-7977 EC50 (M), SW1463, KRAS G12C, Large intestine/Colorectum): 7.59e-09 M | EC50 (SW1573, read-out: RMC-7977 EC50 (M), SW1573, KRAS G12C, Lung): > 1e-06 M | EC50 (SW1783, read-out: RMC-7977 EC50 (M), SW1783, RAS pathway WT, Brain&Nerves): 4.53e-08 M | EC50 (SW1990, read-out: RMC-7977 EC50 (M), SW1990, KRAS G12D, Pancreas): 1.02e-09 M | EC50 (SW-403, read-out: RMC-7977 EC50 (M), SW403, KRAS G12V, Large intestine/Colorectum): 1.15e-09 M | EC50 (SW-620, read-out: RMC-7977 EC50 (M), SW620, KRAS G12V, Large intestine/Colorectum): 9.55e-10 M | EC50 (TOV21G, read-out: RMC-7977 EC50 (M), TOV21G, KRAS G13C, Ovary): 1.41e-08 M | EC50 (U-87 MG, read-out: RMC-7977 EC50 (M), U87MG, NF1 LOF, Brain&Nerves): 2.81e-08 M | EC50 (U-118-MG, read-out: RMC-7977 EC50 (M), U118MG, ROS1 fusion, GBM): 5.95e-08 M | EC50 (UMUC3, read-out: RMC-7977 EC50 (M), UMUC3, KRAS G12C, Bladder): 4.17e-10 M | pEC50 (cell lines with NF1 loss of function and PTPN11 mutations): 7.55 | pEC50 (cell lines with mutationally activated RTKs (RTK^MUT/fusion)): 8.21 | pEC50 (cell lines with wild-type MET gene amplification (MET^AMP)): 8.18 | pEC50 (non-G12 mutant KRAS cell lines): 7.60 | EC50 (read-out: RMC-7977 EC50 (M), AGS, KRAS G12D, Lung): 1.15e-09 M | EC50 (read-out: RMC-7977 EC50 (M), ASH3, NRAS Q61R, HN/Thyroid): 9.77e-09 M | EC50 (read-out: RMC-7977 EC50 (M), HCC2279, EGFR mut, Lung): 4.52e-09 M
